Data as given in ChEMBL document CHEMBL1127025, “(E)-3-[[[[6-(2-carboxyethenyl)-5-[[8-(4- methoxyphenyl)octyl]oxy]-2-pyridinyl]-methyl]thio]methyl]benzoic acid: a novel high-affinity leukotriene B4 receptor antagonist” (J Med Chem, 1993).

Tests used:
[1] = molecular target: T1, Leukotriene B4 receptor 1 (Homo sapiens, UniProt Q15722); assay: Binding affinity against LTB4 receptors in human PMNs
Mus musculus [2] = assay: Effective dose for edematous response after administration of 1 mg of arachidonic acid in mouse ear; type: functional
Homo sapiens = organism: Homo sapiens; assay: Inhibitory concentration against LTB4 induced degranulation in human PMNs; type: functional
Mus musculus [3] = organism: Mus musculus; assay: Inhibition of LTB4-induced PMN infiltration at 250 ng/mL in mouse; type: functional
Mus musculus [4] = assay: Effective dose for neutrophil infiltration after administration of 1 mg of arachidonic acid in mouse ear; type: functional
[5] = molecular target: T1, Leukotriene B4 receptor 1; assay: Inhibitory concentration against LTB4 receptors in human PMNs

T1 sequence (Q15722 whole entry): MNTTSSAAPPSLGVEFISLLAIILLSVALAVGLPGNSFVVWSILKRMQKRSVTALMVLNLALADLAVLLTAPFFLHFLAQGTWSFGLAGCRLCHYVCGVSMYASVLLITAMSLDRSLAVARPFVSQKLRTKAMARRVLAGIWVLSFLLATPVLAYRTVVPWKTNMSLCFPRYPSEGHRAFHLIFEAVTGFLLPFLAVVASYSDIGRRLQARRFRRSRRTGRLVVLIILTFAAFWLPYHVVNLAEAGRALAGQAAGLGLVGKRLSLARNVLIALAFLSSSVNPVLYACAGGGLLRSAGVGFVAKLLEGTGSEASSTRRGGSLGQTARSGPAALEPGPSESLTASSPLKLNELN

| Ki [1] [nM] | IC50 (Homo sapiens) [nM] | IC50 [5] [nM] | SMILES | ED50 (Mus musculus [2]) [mg ear-1] | ED50 (Mus musculus [3]) [mg/kg] | ED50 (Mus musculus [4]) [mg ear-1] |
| --- | --- | --- | --- | --- | --- | --- |
| 280 | – | – | CCCCCCCCCCOc1ccc(CC(O)c2cccc(C(=O)O)c2)nc1/C=C/C(=O)O (configuration not stated) | – | – | – |
| 7.1 | 268 | 131 | COc1ccc(CCCCCCCCOc2ccc(CSCc3cccc(C(=O)O)c3)nc2/C=C/C(=O)O)cc1 | 0.58 | 7.1 | 0.39 |
